From US9512120B2, “Microbicidally active imidazopyridine derivatives” (Syngenta Participations AG, priority 2013, dated 2016)

Key:
[1] = tested on: Monographella nivalis (Microdochium nivale); test: Monographella nivalis (Microdochium nivale) / liquid culture (foot rot cereals); type: cell-based; details: PDB, 24° C., 4-5 days after application, read-out: control of Monographella nivalis (inhibition of growth, photometric)
In short: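 Cryostored conidia in potato dextrose broth were added to test compound dispensed from DMSO at 200 ppm. Plates were kept at 24° C, and growth inhibition was read photometrically 4-5 days after application.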

[2] = tested on: Glomerella lagenarium (Colletotrichum lagenarium); test: Glomerella lagenarium (Colletotrichum lagenarium) / liquid culture (anthracnose); type: cell-based; details: Colletotrichum orbiculare, PDB, 24° C., 3-4 days after application, read-out: control of Glomerella lagenarium (inhibition of growth, photometric)
In short: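 Cryopreserved conidia suspended in potato dextrose broth were added to compound in DMSO applied at 200 ppm. Plates incubated at 24° C; growth inhibition read photometrically 3-4 days after application.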

Sclerotinia sclerotiorum = Sclerotinia sclerotiorum liquid culture (cottony rot / white mold); type: cell-based; details: PDB, 24° C., 3-4 days after application, read-out: control of Sclerotinia sclerotiorum (inhibition of growth, photometric)
In short: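 Mycelia fragments of Sclerotinia sclerotiorum in potato dextrose broth were added to compound in DMSO. Cultures incubated at 24° C; growth inhibition determined photometrically 3-4 days after application.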

Plasmopara viticola = Plasmopara viticola / grape / leaf disc preventative; type: in vivo; details: foliar, grape vine leaf disks, inoculated 1 day after application, assessed 6-8 days after application, read-out: control of Plasmopara viticola (percent disease control compared to untreated)
Fusarium culmorum = test: microbe, parasite or virus in culture; type: cell-based; details: read-out: control of Fusarium culmorum (inhibition of growth, photometric)
Pythium ultimum = Pythium ultimum / liquid culture (seedling damping off); type: cell-based; details: Globisporangium ultimum, potato dextrose broth, 24° C., 2-3 days after application, read-out: control of Pythium ultimum (inhibition of growth, photometric)
In short: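 Test compound in DMSO at 200 ppm was incubated with mycelia fragments and oospores in potato dextrose broth at 24 °C. Growth inhibition was read photometrically 2-3 days after application.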

[3] = tested on: Phaeosphaeria nodorum (Septoria nodorum); test: Phaeosphaeria nodorum (Septoria nodorum) / wheat / leaf disc preventative (glume blotch); type: in vivo; details: Parastagonospora nodorum, foliar, wheat leaf segments cv Kanzler, inoculated 2 days after application, assessed 5-7 days after application, read-out: control of Phaeosphaeria nodorum (percent disease control compared to untreated)
In short: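 Wheat leaf segments (cv Kanzler) on agar sprayed with compound at 200 ppm, inoculated with spores 2 days later. Incubated at 20° C., 75% relative humidity, 12/12 h light/dark; percent disease control versus untreated scored 5-7 days after application.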

[4] = tested on: Mycosphaerella graminicola (Septoria tritici); test: Mycosphaerella graminicola (Septoria tritici) / liquid culture (Septoria blotch); type: cell-based; details: Zymoseptoria tritici, PDB, 24° C., 4-5 days after application, read-out: control of Mycosphaerella graminicola (inhibition of growth, photometric)
In short: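 Cryo-stored conidia in potato dextrose broth were added to compound in DMSO at 200 ppm in microtiter plates. Plates were incubated at 24 °C and growth inhibition was measured photometrically 4–5 days after application.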

Pyrenophora teres = Pyrenophora teres / barley / leaf disc preventative (net blotch); type: in vivo; details: foliar, barley leaf segments cv Hasso, inoculated two days after application, assessed 5-7 days after application, read-out: control of Pyrenophora teres (disease control compared to untreated)
In short: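 Barley cv Hasso leaf segments on agar sprayed with compound at 200 ppm, inoculated with spores two days later. Kept at 20 °C, 65% RH, 12/12 h light; disease control versus untreated scored 5-7 days after application.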

[5] = tested on: Botryotinia fuckeliana (Botrytis cinerea); test: Botryotinia fuckeliana (Botrytis cinerea) / liquid culture (gray mould); type: cell-based; details: Vogels broth, 24° C., 3-4 days after application, read-out: control of Botryotinia fuckeliana (inhibition of growth, photometric)
In short: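 Botrytis cinerea conidia in Vogels broth were added to test compound applied from DMSO at 200 ppm. Incubation at 24 °C; growth inhibition read photometrically 3-4 days after application.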

[6] = tested on: Puccinia recondita f. sp. Tritici; test: Puccinia recondita f. sp. tritici / wheat / leaf disc preventative (brown rust); type: in vivo; details: foliar, wheat leaf segments cv Kanzler, inoculated 1 day after application, assessed 7-9 days after application, read-out: control of Puccinia recondita f. sp. Tritici (percent disease control compared to untreated)
In short: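 Leaf segments of wheat cv Kanzler on agar were sprayed with formulated compound at 200 ppm and inoculated with spores 1 day later. Incubation was at 19° C, 75% relative humidity and 12/12 h light/dark. Activity was scored 7-9 days after application as percent disease control versus untreated.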

[7] = tested on: Fusarium graminearum, syn. Gibberella zeae; test: whole plant or invertebrate; type: in vivo; details: in Triticum aestivum, 144 h, read-out: control of Gibberella zeae (preventative fungicidal activity)
[8] = tested on: Mycosphaerella arachidis (Cercospora arachidicola); test: Mycosphaerella arachidis (Cercospora arachidicola) / liquid culture (early leaf spot); type: cell-based; details: PDB, 24° C., 4-5 days after application, read-out: control of Mycosphaerella arachidis (inhibition of growth, photometric)
In short: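 Conidia suspended in potato dextrose broth and added to test compound from DMSO solution at 200 ppm. Incubated at 24 °C; growth inhibition read photometrically 4-5 days after application.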

[9] = tested on: Thanatephorus cucumeris (Rhizoctonia solani); test: Thanatephorus cucumeris (Rhizoctonia solani) / liquid culture (foot rot, damping-off); type: cell-based; details: PDB, 24° C., 3-4 days after application, read-out: control of Thanatephorus cucumeris (inhibition of growth, photometric)
In short: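 Mycelial fragments in potato dextrose broth exposed to test compounds at 200 ppm (from DMSO solution), incubated at 24° C. Growth inhibition read photometrically 3-4 days after application.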

[10] = tested on: Blumeria graminis f. Sp. Tritici (Erysiphe graminis f. Sp. Tritici); test: Blumeria graminis f. sp. tritici / wheat / leaf disc preventative (powdery mildew on wheat); type: in vivo; details: foliar, wheat leaf segments cv. Kanzler, inoculated 1 day after application, assessed 6-8 days after application, read-out: control of Blumeria graminis (percent disease control compared to untreated)
In short: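 Wheat leaf segments (cv. Kanzler) on agar sprayed with formulated compound at 200 ppm, inoculated with powdery mildew 1 day later. Held at 20 °C, 60% RH, 24 h dark then 12 h/12 h light; percent disease control versus untreated scored 6-8 days after application.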

Gaeumannomyces graminis = Gaeumannomyces graminis / liquid culture (take-all of cereals); type: cell-based; details: PDB, 24° C., 4-5 days after application, read-out: control of Gaeumannomyces graminis (inhibition of growth, photometric)
In short: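 Mycelial fragments in potato dextrose broth were exposed to compound from DMSO at 200 ppm in microtiter plates. Incubation at 24 °C; growth inhibition read photometrically 4-5 days after application.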

[11] = tested on: Puccinia recondita f. sp. Tritici; test: Puccinia recondita f. sp. tritici / wheat / leaf disc curative (brown rust); type: in vivo; details: foliar, wheat leaf segments cv Kanzler, applied 1 day after inoculation, assessed 6-8 days after application, read-out: control of Puccinia recondita f. sp. Tritici (percent disease control compared to untreated)
Method: Puccinia recondita f. Sp. Tritici/Wheat/Leaf Disc Curative (Brown Rust): Wheat leaf segments cv Kanzler were placed on agar in 24-well plates. The leaf segments were inoculated with a spore suspension of the fungus. The plates were stored in darkness at 19° C. and 75% relative humidity. The formulated test compound diluted in water was applied at an application rate of 200 ppm 1 day after inoculation. […] Tritici at 200 ppm when compared to untreated control leaf disks under the same conditions, which show extensive disease development: 2, 13, 16, 23, 30, 61, 75, 89, 103, 173, 174

CCn1c(-n2ncnc2N)nc2cncc(/C(C)=N\OC/C=C/Cl)c21 [Compound 149]
≥ 80%: inhibition at 20 ppm [1] | inhibition at 20 ppm [2] | inhibition at 20 ppm (Sclerotinia sclerotiorum) | pest or weed control at 200 ppm (Plasmopara viticola) | inhibition at 20 ppm (Fusarium culmorum) | inhibition at 20 ppm (Pythium ultimum) | pest or weed control at 200 ppm [3] | inhibition at 20 ppm [4] | pest or weed control at 200 ppm (Pyrenophora teres) | inhibition at 20 ppm [5] | pest or weed control at 200 ppm [6] | pest or weed control at 20 ppm [7] | inhibition at 20 ppm [8] | inhibition at 20 ppm [9]

Nc1ncnn1-c1nc2cnccc2n1C1CCCCC1 [Compound 2, 2-(1-cyclohexylimidazo[4,5-c]pyridin-2-yl)-1,2,4-triazol-3-amine]
≥ 80%: pest or weed control at 200 ppm [10] | inhibition at 20 ppm (Gaeumannomyces graminis) | inhibition at 20 ppm [4] | pest or weed control at 200 ppm [11] | pest or weed control at 200 ppm (Pyrenophora teres) | inhibition at 20 ppm [5] | pest or weed control at 200 ppm [6] | pest or weed control at 20 ppm [7] | inhibition at 20 ppm [9]
